Measured values: ChEMBL document CHEMBL4825672, “Marine Bile Natural Products as Agonists of the TGR5 Receptor” (J Nat Prod, 2021)
Calls of active or inactive are those of the source. No cut-off for these calls is given here.

What was measured:
HEK293 [1] = assay: Induction of intracellular calcium level in human HEK293 cells at 1 mM in absence of extracellular calcium by Fura-2AM dye based fluorometric analysis; assay type: functional, cell-based
[2] = target: T1, G-protein coupled bile acid receptor 1 (Homo sapiens) (UniProt Q8TDU6); assay: Agonist activity at TGR5 (unknown origin) transfected in HEK293 cells assessed as increase in intracellular calcium level at 1 mM in presence of Galphaq inhibitor, UBO-QIC and in absence of extracellular calcium by Fura-2AM dye based fluorometric analysis; assay type: functional, cell-based
T1 sequence (whole entry): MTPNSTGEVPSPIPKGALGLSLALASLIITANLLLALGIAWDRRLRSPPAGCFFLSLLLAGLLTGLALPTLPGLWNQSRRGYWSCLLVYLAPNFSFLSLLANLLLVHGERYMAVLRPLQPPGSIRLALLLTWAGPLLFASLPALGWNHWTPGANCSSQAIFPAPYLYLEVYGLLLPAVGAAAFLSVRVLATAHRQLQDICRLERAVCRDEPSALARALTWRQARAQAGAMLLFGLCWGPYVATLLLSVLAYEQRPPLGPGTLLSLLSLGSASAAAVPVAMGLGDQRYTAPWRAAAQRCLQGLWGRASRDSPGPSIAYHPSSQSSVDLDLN

HEK293 [3] = assay: Cytotoxicity against human HEK293 cells transfected with TGR5 assessed as reduction in cell viability at 1 mM measured after 2.5 hrs by MTS assay; assay type: cell-based; conditions: hek293, 2.5 h, 1000 µM
[4] = target: T1, G-protein coupled bile acid receptor 1 (Homo sapiens); assay: Agonist activity at TGR5 (unknown origin) transfected in HEK293 cells assessed as increase in intracellular calcium level at 0.1 to 0.33 mM in absence of extracellular calcium by Fura-2AM dye based fluorometric analysis; assay type: functional, cell-based; conditions: filed as agonist, dose 0.1-0.33 mM
HEK293 [5] = assay: Induction of intracellular calcium level in human HEK293 cells at 0.1 mM in presence of Galphaq inhibitor, UBO-QIC and in absence of extracellular calcium by Fura-2AM dye based fluorometric analysis; assay type: functional, cell-based
HEK293 [6] = assay: Cytotoxicity against human HEK293 cells transfected with TGR5 assessed as reduction in cell viability at 0.67 mM measured after 2.5 hrs by MTS assay; assay type: cell-based; conditions: hek293, 2.5 h, 670 µM
HEK293 [7] = assay: Induction of intracellular calcium level in human HEK293 cells at 0.33 mM in presence of Galphaq inhibitor, UBO-QIC and in absence of extracellular calcium by Fura-2AM dye based fluorometric analysis; assay type: functional, cell-based
[8] = target: T1, G-protein coupled bile acid receptor 1 (Homo sapiens); assay: Agonist activity at TGR5 (unknown origin) transfected in HEK293 cells assessed as increase in intracellular calcium level at 0.33 mM in presence of Galphaq inhibitor, UBO-QIC and in absence of extracellular calcium by Fura-2AM dye based fluorometric analysis; assay type: functional, cell-based
HEK293 [9] = assay: Cytotoxicity against human HEK293 cells transfected with TGR5 assessed as reduction in cell viability at 0.33 to 0.5 mM measured after 2.5 hrs by MTS assay; assay type: cell-based; conditions: hek293, 2.5 h, 500 µM, dose 0.33-0.5 mM
[10] = target: T1, G-protein coupled bile acid receptor 1 (Homo sapiens); assay: Agonist activity at TGR5 (unknown origin) transfected in HEK293 cells assessed as increase in intracellular calcium level at 0.1 mM in presence of Galphaq inhibitor, UBO-QIC and in absence of extracellular calcium by Fura-2AM dye based fluorometric analysis; assay type: functional, cell-based; conditions: filed as agonist
HEK293 [11] = assay: Induction of intracellular calcium level in human HEK293 cells at 0.1 to 0.33 mM in absence of extracellular calcium by Fura-2AM dye based fluorometric analysis; assay type: functional, cell-based; conditions: dose 0.1-0.33 mM
HEK293 [12] = assay: Induction of intracellular calcium level in human HEK293 cells at 0.5 to 0.67 mM in absence of extracellular calcium by Fura-2AM dye based fluorometric analysis; assay type: functional, cell-based; conditions: dose 0.5-0.67 mM
[13] = target: T1, G-protein coupled bile acid receptor 1 (Homo sapiens); assay: Agonist activity at TGR5 (unknown origin) transfected in HEK293 cells assessed as increase in intracellular calcium level in absence of extracellular calcium by Fura-2AM dye based fluorometric analysis; assay type: functional, cell-based; conditions: filed as agonist, dose 0.5-0.67 mM
[14] = target: T1, G-protein coupled bile acid receptor 1 (Homo sapiens); assay: Agonist activity at TGR5 (unknown origin) transfected in HEK293 cells assessed as increase in intracellular calcium level at 0.5 to 0.67 mM in presence of Galphaq inhibitor, UBO-QIC and in absence of extracellular calcium by Fura-2AM dye based fluorometric analysis; assay type: functional, cell-based; conditions: dose 0.5-0.67 mM

With `C[C@H](CC[C@H](O)C(CO)COS(=O)(=O)O)[C@H]1CC[C@H]2[C@@H]3[C@H](O)C[C@@H]4C[C@H](O)CC[C@]4(C)[C@H]3C[C@H](O)[C@]12C` (some centres not stated) the Activity (HEK293 [1]) was “inactive”, the Activity [2] was “inactive” and the Activity (HEK293 [3]) was “Non-Toxic”.
`C[C@H](CCC(=O)O)[C@H]1CC[C@H]2[C@@H]3CC[C@@H]4C[C@H](O)CC[C@]4(C)[C@H]3C[C@H](O)[C@]12C` [DEOXYCHOLIC ACID] was tested, and the Activity [4] was “Dose-Dependent Effect”, the Activity (HEK293 [5]) was “Active” and the Activity (HEK293 [6]) was “Toxic”. For the same molecule, the Activity (HEK293 [7]) was “inactive”, the Activity [8] was “inactive” and the Activity (HEK293 [9]) was “Toxic”. The Activity [10] was “Active” and the Activity (HEK293 [11]) was “Dose-Dependent Effect”.
In the case of `C[C@H](CC[C@H](O)C(CO)CO)[C@H]1CC[C@H]2[C@@H]3[C@H](O)C[C@@H]4C[C@H](O)CC[C@]4(C)[C@H]3C[C@H](O)[C@]12C`, the Activity (HEK293 [12]) is reported as “inactive”, the Activity [13] is reported as “Dose-Dependent Effect” and the Activity (HEK293 [3]) is reported as “Toxic”. For the same molecule, the Activity [14] was “inactive”.
`C[C@H](CCC(=O)O)[C@H]1CC[C@H]2[C@@H]3[C@@H](O)C[C@@H]4C[C@H](O)CC[C@]4(C)[C@H]3CC[C@]12C` [URSODIOL] was tested, and the Activity (HEK293 [1]) was “inactive” and the Activity (HEK293 [3]) was “Non-Toxic”.
